Measured values published in patent publication US11925611B2, “Use of ZT-1A and analogs thereof to prevent and/or treat neurodegenerative and neurocognitive disorders” (United States Government as Represented by the Department …, priority 2021, dated 2024).
Where two headings read alike, the source gives them in different places.

What was measured:
Assay type in all cases: cell-based
[1] = biological target: SPAK (Homo sapiens, UniProt Q9UEW8); assay: Cellular inhibition of SPAK phosphorylation (pSer373); details: 50% inhibition of phosphorylation, n = 3, — = no inhibition
From the text: (§1) 8. Cellular Activity Profile of Inhibitors with the Salicyclic Amide
(§2) A list of the compounds evaluated for their ability to inhibit phosphorylation of SPAK/NKCC1/KCC3 activity is illustrated in Table 1 below.

[2] = system: NKCC1; assay: Cellular inhibition of NKCC1 phosphorylation (pThr203); details: n = 3, — = no inhibition
From the text: as §1, §2

[3] = system: KCC3; assay: Cellular inhibition of KCC3 phosphorylation (pThr991, pThr1048); details: Isotonic conditions; n = 3; — = no inhibition; read-out: KCC3 pThr1048 (μM) Iso
From the text: as §1, §2

[4] = Hypotonic conditions, read-out: SPAK pSer373 (μM) hypo
[5] = Isotonic conditions, read-out: SPAK pSer373 (μM) Iso
[6] = Hypotonic conditions, read-out: NKCC1 pThr203 (μM) hypo
[7] = Isotonic conditions, read-out: NKCC1 pThr203 (μM) Iso

Row | IC50 [1, 4] | IC50 [1, 5] | IC50 [2, 6] | IC50 [2, 7] | IC50 [3] | SMILES
1 | 3 µM | 3 µM | 1 µM | 3 µM | 3 µM | Cc1cc(C(C#N)c2ccc(Cl)cc2)c(Cl)cc1NC(=O)c1ccccc1O (stereo not drawn) [1b]
2 | 3 µM | 3 µM | 3 µM | 1 µM | 3 µM | Cc1cc(C(C#N)c2ccc(Cl)cc2)c(Cl)cc1NC(=O)c1cc(Cl)cc(Cl)c1O (stereo not drawn) [1f]

The remaining lines, values behind:

Row | SMILES | IC50 [1, 4] | IC50 [1, 5] | IC50 [2, 6] | IC50 [2, 7] | IC50 [3]
3 | Cc1cc(C(C#N)c2ccc(Cl)cc2)c(Cl)cc1NC(=O)c1ccccc1S (stereo not drawn) [1c (ZT-05-037-01)] | 3 µM | 3 µM | 3 µM | 1 µM | 3 µM
4 | Cc1cc(C(C#N)c2ccc(Cl)cc2)c(Cl)cc1NC(=O)c1ccccc1N (stereo not drawn) [1d(ZT-06-022-01)] | 3 µM | 3 µM | 3 µM | 1 µM | 3 µM
5 | Cc1cc(C(C#N)c2ccc(Cl)cc2)c(Cl)cc1NC(=O)c1cc(F)ccc1O (stereo not drawn) [1g(ZT-06-055-01)] | 3 µM | 3 µM | 3 µM | 1 µM | 3 µM
6 | Cc1cc(C(C#N)c2ccc(Cl)cc2)c(Cl)cc1NC(=O)c1cccc(F)c1O (stereo not drawn) [1h(ZT-06-039-01)] | 3 µM | 3 µM | 3 µM | 1 µM | 3 µM
